The source of these data is article PMC7911959, “Selective Inhibition of Human Monoamine Oxidase B by 5-hydroxy-2-methyl-chroman-4-one Isolated from an Endogenous Lichen Fungus Daldinia fissa” (Journal of Fungi, 2021).

One data set relates to liver or brain MAO. The following applies: read-out: IC50 MAO enzyme; cited from earlier work.
The subject of data set [1] is T1, MAO-B.
T1 construct: purchased Sigma-Aldrich
The data set can be described thus: Inhibitor reversibility analysis by dialysis. It counts as biochemical, human. The following applies: for MAO-B activity recovered after dialysis: ~2× IC50, dialyzed; for MAO-B activity before dialysis (undialyzed): ~2× IC50, undialyzed.

The target in data set [2] is T1, MAO-B. As to conditions: co-crystallized ligand of PDB 4A79; reference not given; cited from earlier work.
The next data set concerns the target monoamine oxidase. Set-up: method as in PMID 27520493. As to conditions: cited from earlier work.
A further data set has as its target T2, Human recombinant MAO-A (Homo sapiens, UniProt P21397).
T2 construct: purchased Sigma-Aldrich
T2 sequence (P21397 1-527): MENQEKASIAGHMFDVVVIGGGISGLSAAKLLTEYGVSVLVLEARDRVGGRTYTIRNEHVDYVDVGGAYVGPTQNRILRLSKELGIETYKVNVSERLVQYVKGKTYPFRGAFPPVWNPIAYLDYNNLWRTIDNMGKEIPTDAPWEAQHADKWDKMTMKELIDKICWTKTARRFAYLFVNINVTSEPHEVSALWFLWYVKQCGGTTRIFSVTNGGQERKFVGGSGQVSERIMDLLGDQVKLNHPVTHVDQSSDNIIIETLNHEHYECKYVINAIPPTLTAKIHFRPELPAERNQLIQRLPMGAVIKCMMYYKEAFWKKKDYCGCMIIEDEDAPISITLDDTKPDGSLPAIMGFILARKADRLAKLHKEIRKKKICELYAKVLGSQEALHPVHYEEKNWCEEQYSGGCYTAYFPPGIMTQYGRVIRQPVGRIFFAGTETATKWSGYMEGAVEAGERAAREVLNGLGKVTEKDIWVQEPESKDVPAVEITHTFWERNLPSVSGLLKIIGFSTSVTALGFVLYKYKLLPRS
Briefly: MAO-A activity assay (kynuramine, 316 nm). The format is biochemical. The method, then: (§1) Human recombinant MAO-A and MAO-B enzymes were used, and the activities were measured in a final volume of 500 µL of 100 mM sodium phosphate buffer of pH 7.2, and 0.06 mM kynuramine (MAO-A), or 0.3 mM benzylamine (MAO-B).
(§2) The inhibitory activities of the isolated compounds were analyzed at a concentration of 2 µg/mL.

The target in the next data set is T3, Human recombinant MAO-B (Homo sapiens, UniProt P27338).
T3 construct: purchased Sigma-Aldrich
T3 sequence (P27338 1-520): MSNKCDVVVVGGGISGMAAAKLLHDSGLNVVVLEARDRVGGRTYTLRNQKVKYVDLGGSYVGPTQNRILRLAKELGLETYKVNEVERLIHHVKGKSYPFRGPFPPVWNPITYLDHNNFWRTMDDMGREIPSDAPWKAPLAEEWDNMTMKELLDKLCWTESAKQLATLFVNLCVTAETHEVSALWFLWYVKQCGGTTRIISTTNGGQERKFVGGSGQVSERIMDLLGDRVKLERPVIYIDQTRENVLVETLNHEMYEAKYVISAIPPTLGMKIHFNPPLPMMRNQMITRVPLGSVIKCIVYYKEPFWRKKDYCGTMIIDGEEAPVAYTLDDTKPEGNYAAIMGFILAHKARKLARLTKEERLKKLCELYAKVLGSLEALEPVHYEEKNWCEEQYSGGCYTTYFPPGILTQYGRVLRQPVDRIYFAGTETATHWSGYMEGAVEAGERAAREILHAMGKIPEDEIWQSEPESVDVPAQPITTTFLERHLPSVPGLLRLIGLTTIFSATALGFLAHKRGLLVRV
The data set can be described thus: MAO-B activity assay (benzylamine, 250 nm). It counts as biochemical. The method, then:
as §1, §2

The target in the next data set is T4, electric eel AChE (Electrophorus electricus, UniProt O42275).
T4 construct: purchased Sigma-Aldrich
Briefly: biochemical. The method, then: (§3) For cholinesterase activity assay, electric eel AChE and horse serum BChE were used. Activities were measured according to the Ellman method, with slight modifications, in 50 mM sodium phosphate buffer (pH 7.5). After adding cholinesterase enzymes and the inhibitor, pre-incubation was applied for 15 min. After adding 0.5 mM 5,5-dithiobis (2-nitrobenzoic acid) (DTNB) 0.5 mM for color development, 0.5 mM acetyl thiocholine iodide (ATCI) or 0.5 mM butyrylthiocholine iodide (BTCI) was used as a substrate.

For another data set, the target named is T5, horse serum BChE (Equus caballus, UniProt P81908).
T5 construct: electric eel AChE and horse serum BChE were used; purchased Sigma-Aldrich; host or cells: horse serum
The data set can be described thus: biochemical. The method, then: as §3

The subject of the next data set is T6, BACE-1.
T6 construct: purchased Sigma-Aldrich
The data set can be described thus: BACE-1 activity assay (detection kit, fluorescence). The format is biochemical. The following applies: isolated compounds, residual activity at 10 µg/mL (footnote a). The method, then:
BACE-1 assay was carried out using the BACE-1 activity detection kit and a fluorescence spectrometer (FS-2, Scinco, Seoul, Korea) by an excitation at 320 nm and an emission at 405 nm, after the reaction for 2 h at 37 °C [24].

Data set [3] is described as follows: DPPH antioxidant activity assay. The following applies: isolated compounds, 100 µg/mL (footnote b). The method, then:
The antioxidant activity was measured at 100 µg/mL of the extracts using 0.1 mM 2,2-diphenyl-1-picrylhydrazyl (DPPH). After 15 min of pre-incubation, absorbance was measured at 517 nm.

Data set [4] relates to MDCK (Madin–Darby canine kidney) cells. Briefly: Cytotoxicity, CCK-8 assay, MDCK. The following applies: 50 µM, 24 h treatment, CCK-8 3 h. It counts as cell-based. The method, then:
(§4) Cell viability was determined according to the cell counting kit (CCK)-8 assay method, using MDCK (Madin–Darby canine kidney) and HL-60 (human acute promyelocytic leukemia) cells, as normal and cancer cells, respectively. Briefly, MDCK and HL-60 cells were resuspended in Dulbecco’s modified eagle medium (DMEM) and Roswell Park Memorial Institute (RPMI)-1640, respectively, at 1 × 10^5 and 3 × 10^5 cells/mL, respectively. The cell suspension (100 µL) was added to each well of the 96-well plate and was incubated for 24 h at 5% CO2 and 37 °C. After incubation, 100 µL of the medium supplemented with 1, 3, 10, 30, and 50 µM of the compound was added to each well and incubated again. After 24 h, 100 µL of the solution was removed from each well, and CCK-8 (10 µL/well) was dispensed. After 2~4 h, the absorbance was detected at 450 nm with a microplate reader (Versamax, Molecular Devices, CA, USA).

Data set [5] has as its system HL-60 (human acute promyelocytic leukemia) cells. The data set can be described thus: Cytotoxicity, CCK-8 assay, HL-60. It counts as cell-based. As to conditions: 50 µM, 24 h treatment, CCK-8 4 h. The method, then:
as §4

In brackets after ≈: the same amount, converted by molar mass. Entries after “also recorded” stand apart in the source; their conditions may differ.

Usually IC50 stands for the concentration needed to halve the response being measured. In general, Ki refers to the equilibrium dissociation constant of an inhibitor or competing ligand from its target.

T4 sequence (O42275 24-633): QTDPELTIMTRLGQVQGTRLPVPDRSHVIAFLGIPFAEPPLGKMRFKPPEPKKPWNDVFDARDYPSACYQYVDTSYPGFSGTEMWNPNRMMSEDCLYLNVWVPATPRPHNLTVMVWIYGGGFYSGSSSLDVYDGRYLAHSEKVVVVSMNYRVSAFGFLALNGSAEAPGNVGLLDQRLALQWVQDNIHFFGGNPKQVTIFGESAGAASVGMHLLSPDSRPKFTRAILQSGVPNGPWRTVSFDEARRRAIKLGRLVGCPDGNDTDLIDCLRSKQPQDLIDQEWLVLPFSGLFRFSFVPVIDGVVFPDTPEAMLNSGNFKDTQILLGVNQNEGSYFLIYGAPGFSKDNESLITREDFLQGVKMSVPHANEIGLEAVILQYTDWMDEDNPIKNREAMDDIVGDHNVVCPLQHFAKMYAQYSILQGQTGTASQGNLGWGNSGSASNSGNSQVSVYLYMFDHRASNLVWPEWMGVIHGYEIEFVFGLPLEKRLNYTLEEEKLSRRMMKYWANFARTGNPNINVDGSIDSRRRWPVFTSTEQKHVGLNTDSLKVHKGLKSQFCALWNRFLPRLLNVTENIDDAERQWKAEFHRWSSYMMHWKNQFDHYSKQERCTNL
T5 sequence (P81908 whole entry): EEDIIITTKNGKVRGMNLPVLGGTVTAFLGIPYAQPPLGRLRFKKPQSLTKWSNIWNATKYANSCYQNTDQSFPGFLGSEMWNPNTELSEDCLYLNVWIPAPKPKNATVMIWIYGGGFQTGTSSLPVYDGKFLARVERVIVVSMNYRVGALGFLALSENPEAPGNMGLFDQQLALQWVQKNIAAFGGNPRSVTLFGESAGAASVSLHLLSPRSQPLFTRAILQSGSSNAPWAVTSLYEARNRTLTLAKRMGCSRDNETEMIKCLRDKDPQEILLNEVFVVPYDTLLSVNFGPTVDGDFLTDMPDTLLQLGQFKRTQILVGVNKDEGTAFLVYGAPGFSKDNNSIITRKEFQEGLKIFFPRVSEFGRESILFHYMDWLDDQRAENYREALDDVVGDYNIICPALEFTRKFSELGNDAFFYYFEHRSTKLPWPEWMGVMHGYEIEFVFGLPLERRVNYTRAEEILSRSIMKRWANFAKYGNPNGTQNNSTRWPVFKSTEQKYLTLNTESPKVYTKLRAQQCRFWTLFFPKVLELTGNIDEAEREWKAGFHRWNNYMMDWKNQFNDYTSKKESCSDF

Regarding `CCCCCC(=O)c1c(O)cc2c(c1O)C(=O)c1c(O)cc(OC)cc1C2=O` [Solorinic acid], in the data set on liver or brain MAO, the IC50 was 14.3 µM.
For `NCCNC(=O)c1ccc(Cl)cn1` [Lazabemide, reference compound], in the data set with MAO-B [1], the “MAO-B activity recovered after dialysis” value was 74.4% and the “MAO-B activity before dialysis (undialyzed)” value is 26.0%.
In the case of `CCc1ccc(CCOc2ccc(CC3SC(=O)NC3=O)cc2)nc1` (centres unmarked) [P1B, pioglitazone], the Ki on MAO-B [2] is 0.5 µM.
In the case of `CC1Cc2cccc(O)c2C(=O)O1` (centres unmarked) [mellein, Mellein], at monoamine oxidase, the IC50 is 50.2 µM and the IC50 monoamine oxidase is listed as 8.93 µg/mL (≈ 50.1 µM).
As for `CC1CC(=O)c2c(O)cccc2O1` (centres unmarked) [HMC, 5-hydroxy-2-methyl-chroman-4-one], the half-maximal inhibitory concentration (IC50) was 14 ± 2.07 µM on Human recombinant MAO-A, 3.23 ± 0.3 µM on Human recombinant MAO-B, more than 40 µM against electric eel AChE and more than 40 µM against horse serum BChE. The remaining activity at 2 µg/mL on Human recombinant MAO-A (isolated compounds, 2 µg/mL, read-out: Residual Activity at 2 µg/mL (%) MAO-A) was 55.8 ± 0.91%; on Human recombinant MAO-B (isolated compounds, 2 µg/mL, read-out: Residual Activity at 2 µg/mL (%) MAO-B), 13.2 ± 0.48%; at electric eel AChE (isolated compounds, 2 µg/mL, read-out: Residual Activity at 2 µg/mL (%) AChE) it was 73 ± 1.13%; at horse serum BChE (isolated compounds, 2 µg/mL, read-out: Residual Activity at 2 µg/mL (%) BChE), 83.8 ± 5.89%. The “Inhibition pattern (Lineweaver–Burk plots)” value at Human recombinant MAO-B (MAO-B) is on record as “competitive inhibitor”. Also, the “Time-dependency: residual activities after preincubation” value on Human recombinant MAO-B (preincubation up to 30 min) is given as “not changed significantly”. Moreover, on Human recombinant MAO-B (ratio of IC50 values), the “Selectivity for MAO-B compared to MAO-A” value was ~ 4 fold. Further, the Ki at Human recombinant MAO-B (secondary plot of Lineweaver–Burk slopes vs inhibitor concentration) is 0.896 µM. In the data set on BACE-1, the “Residual Activity (%) BACE-1” value was 98.6 ± 2.04%. Further, the “% Inhibition DPPH” value in data set [3] is 25.11 ± 2.12%. Besides, the “Reversibility of MAO-B inhibition” value in the data set on MAO-B [1] (dialysis, ~2× IC50) is listed as “reversible inhibitor”. Also, the “MAO-B activity recovered after dialysis” value in the data set with MAO-B [1] turned out to be 80.6%. The “MAO-B activity before dialysis (undialyzed)” value in the data set on MAO-B [1] is listed as 23.1%. In data set [4], the “Cell viability, MDCK” value is on record as “No cytotoxicity; also recorded: not decreased at all”. The “Cell viability, HL-60” value in data set [5] was “No cytotoxicity; also recorded: not decreased at all”.
With `C#CCN(C)Cc1ccccc1` [Pargyline, reference compound], in the data set with MAO-B [1], the “MAO-B activity recovered after dialysis” value is reported as “not recovered at all”.
